Source: patent US11160871B2, “SSTR-targeted conjugates and particles and formulations thereof” (TARVEDA THERAPEUTICS, INC., priority 2015, dated 2021)
Where two headings read alike, the source gives them in different places.

System: NCI-H524 human small cell lung cancer cells
Assay: cells
Assay type: cell-based
Description: Conjugates of the present invention were assessed in an in vitro assay evaluating inhibition of cell proliferation. NCI-H524 (ATCC) human small cell lung cancer cells were plated in 96 well, V-bottomed plates (Costar) at a concentration of 5,000 cells/well. 24 hours later, cells were treated with either conjugate for 2 hours and further incubated 70 hours, or for octreotide competition experiments, treated with 100 μM octreotide for 30 min, and then treated with conjugate for 2 hours, and further incubated for 70 hours. Conjugate starting dose was 20 μM and three fold serial dilutions were done for a total of ten points. After 2 hours of treatment, cells were spun down, the drug containing media was removed, and fresh complete medium was added and used to resuspend the cells, which were spun again. After removal of the wash media, the cells were resuspended in complete medium, and then transferred into white walled, flat bottomed 96 well plates. […] Proliferation was measured using CellTiter Glo reagent using the standard protocol (Promega) and a Glomax multi+ detection system (Promega). Percent proliferation inhibition was calculated using the following formula: % inhibition=(control−treatment)/control*100. Control is defined as vehicle alone. IC50 curves were generated using the nonlinear regression analysis (four parameter) with GraphPad Prism 6.

[1] = 2 hours treatment, 70 hours further incubation, read-out: H524 IC50
[2] = read-out: H524 IC50+ 100 uM octreotide, 100 μM octreotide for 30 min before conjugate

SMILES | IC50 [1] | IC50 [2]
COc1cc2cc(c1Cl)N(C)C(=O)C[C@H](OC(=O)[C@H](C)N(C)C(=O)CCSC1CC(=O)N(CCCNC(=O)CC[C@H](NC(=O)[C@@H]3CSSC[C@H](NC(=O)[C@H](N)Cc4ccccc4)C(=O)N[C@@H](Cc4ccc(O)cc4)C(=O)N[C@H](Cc4c[nH]c5ccccc45)C(=O)N[C@@H](CCCCN)C(=O)N[C@@H]([C@@H](C)O)C(=O)N3)C(=O)NCCCN3C(=O)CC(SCCC(=O)N(C)[C@@H](C)C(=O)O[C@H]4CC(=O)N(C)c5cc(cc(OC)c5Cl)C/C(C)=C/C=C/[C@@H](OC)[C@@]5(O)C[C@H](OC(=O)N5)[C@@H](C)[C@@H]5O[C@@]45C)C3=O)C1=O)[C@]1(C)O[C@H]1[C@H](C)[C@@H]1C[C@@](O)(NC(=O)O1)[C@H](OC)/C=C/C=C(\C)C2 (single isomer, unassigned) [Conjugate 53] | 42 nM | 175 nM
COc1cc2cc(c1Cl)N(C)C(=O)C[C@H](OC(=O)[C@H](C)N(C)C(=O)CCSSC(C)CCN[C@H](Cc1ccccc1)C(=O)N[C@H]1CSSC[C@@H](C(=O)N[C@H](CO)[C@@H](C)O)NC(=O)[C@H]([C@@H](C)O)NC(=O)[C@H](CCCCN)NC(=O)[C@@H](Cc3c[nH]c4ccccc34)NC(=O)[C@H](Cc3ccccc3)NC1=O)[C@]1(C)O[C@H]1[C@H](C)[C@@H]1C[C@@](O)(NC(=O)O1)[C@H](OC)/C=C/C=C(\C)C2 (single isomer, unassigned) [Conjugate 82] | 148 nM | 867 nM
CCCCCCCCCCC(CCN[C@H](Cc1ccccc1)C(=O)N[C@H]1CSSC[C@@H](C(=O)N[C@@H](Cc2c[nH]c3ccccc23)C(N)=O)NC(=O)[C@H](C(C)C)NC(=O)[C@H](CCCCN)NC(=O)[C@@H](Cc2c[nH]c3ccccc23)NC(=O)[C@H](Cc2ccc(O)cc2)NC1=O)SSCCC(=O)N(C)[C@@H](C)C(=O)O[C@H]1CC(=O)N(C)c2cc(cc(OC)c2Cl)C/C(C)=C/C=C/[C@@H](OC)[C@@]2(O)C[C@H](OC(=O)N2)[C@@H](C)[C@@H]2O[C@@]12C (single isomer, unassigned) [Conjugate 102] | 335 nM | 579 nM
COc1cc2cc(c1Cl)N(C)C(=O)C[C@H](OC(=O)[C@H](C)N(C)C(=O)CCSC1CC(=O)N(CC3CCC(C(=O)N[C@H](Cc4ccccc4)C(=O)N[C@H]4CSSC[C@@H](C(=O)N[C@H](CO)[C@@H](C)O)NC(=O)[C@H]([C@@H](C)O)NC(=O)[C@H](CCCCN)NC(=O)[C@@H](Cc5c[nH]c6ccccc56)NC(=O)[C@H](Cc5ccccc5)NC4=O)CC3)C1=O)[C@]1(C)O[C@H]1[C@H](C)[C@@H]1C[C@@](O)(NC(=O)O1)[C@H](OC)/C=C/C=C(\C)C2 (single isomer, unassigned) [Conjugate 104] | 279 nM | 705 nM
COc1cc2cc(c1Cl)N(C)C(=O)C[C@H](OC(=O)[C@H](C)N(C)C(=O)CCSC1CC(=O)N(CC(=O)N[C@H](Cc3ccccc3)C(=O)N[C@H]3CSSC[C@@H](C(=O)N[C@H](CO)[C@@H](C)O)NC(=O)[C@H]([C@@H](C)O)NC(=O)[C@H](CCCCN)NC(=O)[C@@H](Cc4c[nH]c5ccccc45)NC(=O)[C@H](Cc4ccccc4)NC3=O)C1=O)[C@]1(C)O[C@H]1[C@H](C)[C@@H]1C[C@@](O)(NC(=O)O1)[C@H](OC)/C=C/C=C(\C)C2 (single isomer, unassigned) [Conjugate 108] | 96 nM | 1280 nM
COc1cc2cc(c1Cl)N(C)C(=O)C[C@H](OC(=O)[C@H](C)N(C)C(=O)CCSSCCC(=O)N[C@H](Cc1ccccc1)C(=O)N[C@H]1CSSC[C@@H](C(=O)N[C@H](CO)[C@@H](C)O)NC(=O)[C@H]([C@@H](C)O)NC(=O)[C@H](CCCCN)NC(=O)[C@@H](Cc3c[nH]c4ccccc34)NC(=O)[C@H](Cc3ccccc3)NC1=O)[C@]1(C)O[C@H]1[C@H](C)[C@@H]1C[C@@](O)(NC(=O)O1)[C@H](OC)/C=C/C=C(\C)C2 [Conjugate 4] | 367 nM | 853 nM
